{"source": "patent US4317768A", "about": "“Dihydropyridine derivatives as stabilizers for vinyl chloride polymers” (priority 1977, dated 1982)", "key": {"[1]": {"experiment": "Polarographic study of the oxidation potential", "format": "physicochemical", "settings": "acetonitrile, 0.1 M lithium perchlorate, vitrous carbon electrode, calomel reference", "excerpt": "By a polarographic study of their oxidation potential, compared to well-known antioxidants such as 2,6-diterbutyl-4-methyl-phenol, 2-terbutyl-4-methoxy-phenol, 4-methoxy-phenol and hydroquinone.\nReference electrode: Calomel electrode containing a saturated solution of anhydrous lithium perchlorate as bridge liquid.\nWorking electrode: Vitrous carbon rotating electrode (2,500 r.p.m.)\nCounter-electrode: Platinum electrode\nAcetonitrile containing less than 0.1% of water and presenting no polarographic waves between -2.5 V and +2.5 V.\nAnhydrous lithium perchlorate containing less than 1% of water.\nA 0.1 M solution of lithium perchlorate in acetonitrile, treated and preserved on a 4 A molecular sieve.\nAmplitude of exploration: 0 to 2 V\nSpeed of exploration: 10 mV/second\nSensitivity: 1.25 μA to 50 μA\nMean concentration: about 0.3×10^-3 mol/liter\nBetween each measurement, the vitrous carbon electrode and the platinum electrode were carefully cleaned with Joseph paper."}, "[2]": {"experiment": "Antioxidant power on a polyvinyl chloride resin, GARDNER method, 185° C.", "protocol": "(§1) By direct comparison, on a polyvinyl chloride resin, of the antioxidant power of Compound 1 of the invention and that of an antioxidant known as one of the most valuable and frequently used in polyvinyl chloride, namely 2,6-diterbutyl-4-methyl-phenol.\n(§2) The antioxidant power of Compound 1 was compared to that of 2,6-diterbutyl-4-methyl-phenol (Compound 2) by using the following resin:\nThe study was carried out according to the GARDNER method, the samples being removed from an oven at 185° C. every 10 minutes over a period of 80 minutes.\nThe signs + and - have the same meanings as in the previous table and > 2 means that the coloration lies between 2 and 2+."}, "[3]": {"experiment": "Antioxidant power on a polyvinyl chloride resin, Metrastat oven, 210° C.", "protocol": "as §1, §2\nThe same trials were carried out in a Metrastat oven at 210° C."}, "[4]": {"experiment": "Antioxidant power on a polyvinyl chloride resin, GARDNER method, 185° C.", "remark": "listed apart in the source"}}}
{"smiles": "Cc1cc(C(C)(C)C)c(O)c(C(C)(C)C)c1", "note": "[Compound Z, 2,6-diterbutyl-4-methyl-phenol, reference compound]", "values": [{"measurement": "Oxidation potential", "setting": "[1]", "value": "1.11 ± 0.02", "unit": "volts"}, {"measurement": "coloration, GARDNER scale", "setting": "[2]; 0.05 part, 0 min", "value": "> 1"}, {"measurement": "coloration, GARDNER scale", "setting": "[2]; 0.05 part, 40 min", "value": "> 6"}, {"measurement": "coloration, GARDNER scale", "setting": "[2]; 0.05 part, 50 min", "value": 7}, {"measurement": "coloration, GARDNER scale", "setting": "[2]; 0.05 part, 60 min", "value": 7}, {"measurement": "coloration, GARDNER scale", "setting": "[2]; 0.05 part, 70 min", "value": 8}, {"measurement": "coloration, GARDNER scale", "setting": "[2]; 0.05 part, 80 min", "value": "Burnt"}, {"measurement": "coloration, GARDNER scale", "setting": "[2]; 0.1 part, 0 min", "value": "> 1"}, {"measurement": "coloration, GARDNER scale", "setting": "[2]; 0.1 part, 30 min", "value": "> 5"}, {"measurement": "coloration, GARDNER scale", "setting": "[2]; 0.1 part, 40 min", "value": "> 6"}, {"measurement": "coloration, GARDNER scale", "setting": "[2]; 0.1 part, 50 min", "value": 7}, {"measurement": "coloration, GARDNER scale", "setting": "[2]; 0.1 part, 60 min", "value": 7}, {"measurement": "coloration, GARDNER scale", "setting": "[2]; 0.1 part, 70 min", "value": 8}, {"measurement": "coloration, GARDNER scale", "setting": "[2]; 0.2 part, 0 min", "value": "> 1"}, {"measurement": "coloration, GARDNER scale", "setting": "[2]; 0.2 part, 40 min", "value": "> 6"}, {"measurement": "coloration, GARDNER scale", "setting": "[2]; 0.2 part, 50 min", "value": 7}, {"measurement": "coloration, GARDNER scale", "setting": "[2]; 0.2 part, 60 min", "value": 7}, {"measurement": "coloration, GARDNER scale", "setting": "[2]; 0.2 part, 70 min", "value": 8}, {"measurement": "coloration, GARDNER scale", "setting": "[2]; 0.3 part, 20 min", "value": "> 2"}, {"measurement": "coloration, GARDNER scale", "setting": "[2]; 0.3 part, 30 min", "value": 6}, {"measurement": "coloration, GARDNER scale", "setting": "[2]; 0.3 part, 40 min", "value": 7}, {"measurement": "coloration, GARDNER scale", "setting": "[2]; 0.3 part, 50 min", "value": 8}, {"measurement": "coloration, GARDNER scale", "setting": "[2]; 0.3 part, 60 min", "value": 8}, {"measurement": "coloration, GARDNER scale", "setting": "[2]; 0.4 part, 20 min", "value": 3}, {"measurement": "coloration, GARDNER scale", "setting": "[2]; 0.4 part, 30 min", "value": "> 6"}, {"measurement": "coloration, GARDNER scale", "setting": "[2]; 0.4 part, 50 min", "value": 9}, {"measurement": "coloration, GARDNER scale", "setting": "[2]; 0.4 part, 60 min", "value": 9}, {"measurement": "coloration, GARDNER scale", "setting": "[2]; 0.4 part, 70 min", "value": 9}, {"measurement": "coloration, GARDNER scale", "setting": "[2]; 0.5 part, 20 min", "value": 3}, {"measurement": "coloration, GARDNER scale", "setting": "[2]; 0.5 part, 30 min", "value": "> 6"}, {"measurement": "coloration, GARDNER scale", "setting": "[2]; 0.5 part, 40 min", "value": "> 7"}, {"measurement": "coloration, GARDNER scale", "setting": "[2]; 0.5 part, 60 min", "value": 8}, {"measurement": "coloration, GARDNER scale", "setting": "[2]; 0.5 part, 70 min", "value": 8}, {"measurement": "coloration, GARDNER scale", "setting": "[2]; 1.0 part, 20 min", "value": "> 3"}, {"measurement": "coloration, GARDNER scale", "setting": "[2]; 1.0 part, 30 min", "value": 8}, {"measurement": "coloration, GARDNER scale", "setting": "[2]; 1.0 part, 40 min", "value": 8}, {"measurement": "coloration, GARDNER scale", "setting": "[2]; 1.0 part, 50 min", "value": 8}, {"measurement": "coloration, GARDNER scale", "setting": "[2]; 1.0 part, 60 min", "value": 9}, {"measurement": "coloration, GARDNER scale", "setting": "[2]; 1.0 part, 70 min", "value": 9}, {"measurement": "time of burning (B)", "setting": "[3]; 0.05 part", "value": "38 '"}, {"measurement": "coloration, GARDNER scale", "setting": "[3]; 0.05 part, 10 to 20 min", "value": 2}, {"measurement": "coloration, GARDNER scale", "setting": "[3]; 0.05 part, 30 to 35 min", "value": 10}, {"measurement": "coloration, GARDNER scale", "setting": "[3]; 0.05 part, 35 to 40 min", "value": "> 10"}, {"measurement": "time of burning (B)", "setting": "[3]; 0.1 part", "value": "39 '"}, {"measurement": "coloration, GARDNER scale", "setting": "[3]; 0.1 part, 10 to 20 min", "value": 2}, {"measurement": "coloration, GARDNER scale", "setting": "[3]; 0.1 part, 30 to 35 min", "value": 11}, {"measurement": "coloration, GARDNER scale", "setting": "[3]; 0.1 part, 35 to 40 min", "value": "> 11"}, {"measurement": "time of burning (B)", "setting": "[3]; 0.2 part", "value": "39 '"}, {"measurement": "coloration, GARDNER scale", "setting": "[3]; 0.2 part, 10 to 20 min", "value": 2}, {"measurement": "coloration, GARDNER scale", "setting": "[3]; 0.2 part, 30 to 35 min", "value": 11}, {"measurement": "coloration, GARDNER scale", "setting": "[3]; 0.2 part, 35 to 40 min", "value": "> 11"}, {"measurement": "time of burning (B)", "setting": "[3]; 0.3 part", "value": "39 '"}, {"measurement": "coloration, GARDNER scale", "setting": "[3]; 0.3 part, 0 to 10 min", "value": "< 1"}, {"measurement": "coloration, GARDNER scale", "setting": "[3]; 0.3 part, 25 to 30 min", "value": 3}, {"measurement": "coloration, GARDNER scale", "setting": "[3]; 0.3 part, 30 to 35 min", "value": 9}, {"measurement": "coloration, GARDNER scale", "setting": "[3]; 0.3 part, 35 to 40 min", "value": "< 10"}, {"measurement": "time of burning (B)", "setting": "[3]; 0.4 part", "value": "38 '"}, {"measurement": "coloration, GARDNER scale", "setting": "[3]; 0.4 part, 10 to 20 min", "value": 2}, {"measurement": "coloration, GARDNER scale", "setting": "[3]; 0.4 part, 20 to 25 min", "value": 3}, {"measurement": "coloration, GARDNER scale", "setting": "[3]; 0.4 part, 30 to 35 min", "value": 10}, {"measurement": "coloration, GARDNER scale", "setting": "[3]; 0.4 part, 35 to 40 min", "value": "> 10"}, {"measurement": "time of burning (B)", "setting": "[3]; 0.5 part", "value": "38 '"}, {"measurement": "coloration, GARDNER scale", "setting": "[3]; 0.5 part, 10 to 20 min", "value": 2}, {"measurement": "coloration, GARDNER scale", "setting": "[3]; 0.5 part, 20 to 25 min", "value": 3}, {"measurement": "time of burning (B)", "setting": "[3]; 1.0 part", "value": "38 '"}, {"measurement": "coloration, GARDNER scale", "setting": "[3]; 1.0 part, 10 to 20 min", "value": 2}, {"measurement": "coloration, GARDNER scale", "setting": "[3]; 1.0 part, 25 to 30 min", "value": 5}, {"measurement": "coloration, GARDNER scale", "setting": "[3]; 1.0 part, 30 to 35 min", "value": 11}, {"measurement": "coloration, GARDNER scale", "setting": "[3]; 1.0 part, 35 to 40 min", "value": "> 11"}, {"measurement": "colour of sheets, in words", "setting": "[3]; from the time zero", "value": "pink-coloured sheets"}, {"measurement": "antioxidant power, Compound 1 vs Compound Z, in words", "setting": "[4]", "value": "no concentration in Compound Z gives the best results obtained with Compound 1"}]}
